Experiments:
[1] = test system: cancer cell lines with and without the HRD gene signature; assay: Colony formation and MTT assay in cancer cell lines with intact or defective HR; format: cell-based, human; details: prostate, renal, lung, ovarian, breast cancer lines; colony formation, MTT
Experimental: FIGS. 2A-D. The HRD Gene Signature Predicts Sensitivity to PARP Inhibitors in Cancer Cells. (A) Cell lines with intact HR (I) and defective HR (D) were selected for five cancer types as follows: prostate cancer: PC-3 (D) and DU-145 (I); renal cancer: ACHN (D) and 7860-O (I); lung cancer: H266 (D) and H522 (I); ovarian cancer: OVCAR-3 (D) and OVCAR-8 (I); and breast cancer: MCF7 (D), MDA-MB-231 (I), and HCC1937 […]. Modified HR repair assay was performed by transfecting cells with DRGFP DSB substrate plasmid and I-SceI plasmid through electroporation at 270V, 975uF using a BioRad genepulsar II. Flow cytometry analysis was performed 48 to 72 hours later to detect GFP-positive cells. […] (B-D) Colony formation assay was performed with the indicated concentrations of olaparib (B) or rucaparib (C), or (D) cell lines were seeded in 96-well plates, treated with olaparib at the indicated concentrations for 5 days, and then analyzed by MTT assay. […]
Cell Proliferation Assay. Cell proliferation was measured by MTT (3-(4,5-dimethylthiazol-2-yl)-2,5-diphenyltetrazolium bromide; Sigma) reduction. […] Plates were read at 490 nm and 650 nm (background) in a microplate reader (Molecular Devices). After subtraction of background, the cell viability was calculated as fold change relative to control cells. The OD values were analyzed with Graphpad Prism 6.0 software. […]

HCC1937 cells = assay: Apoptosis analysis; format: cell-based, human; details: olaparib plus TTK inhibitor, 48 hours
Experimental: FIGS. 14A-B. TTK inhibitor enhances apoptosis induced by PARP inhibitor. (A) TTK expression levels in basal-like or luminal breast cancer cell lines and immortal human mammalian epithelial cells. Cell lysates were harvested from indicated cell lines and subjected to Western blot analysis. (B) HCC1937 cells were treated with olaparib, or combined with TTK inhibitor AZ3146 for 48 hours and subjected to apoptosis analysis. Each value represents the mean±SD from three independent experiments.

HCC1937 = assay: Drug combination study by MTT assay (combination index, CompuSyn); format: cell-based, human
Experimental: Cell Proliferation Assay. Cell proliferation was measured by MTT (3-(4,5-dimethylthiazol-2-yl)-2,5-diphenyltetrazolium bromide; Sigma) reduction. To test the cell proliferation rate, 500-1×10^4 cells/well were seeded in a 96-well plate in a total volume of 100 μL in triplicate in each experiment. The next day, cells were treated with indicated concentrations of drugs. Five days later, 20 μL of MTT substrate (2 mg/mL) was added to each well and incubated with cells for 3 hr. Then the culture medium was removed, and 100 μL of dimethyl sulfoxide was added. Plates were read at 490 nm and 650 nm (background) in a microplate reader (Molecular Devices). After subtraction of background, the cell viability was calculated as fold change relative to control cells. The OD values were analyzed with Graphpad Prism 6.0 software. Each value is relative to the value in the cells treated with vehicle control. Results are shown as mean±SEM from three independent experiments.
Drug Combination Studies. […] CI<1 indicated synergism, and CI=1 and CI>1 indicated additive and antagonism, respectively.

[2] = test system: BRCA1/2 mutation carriers with recurrent ovarian cancer; details: phase II; cited from earlier work
[3] = test system: BRCA-negative patients with advanced-stage triple-negative breast cancer; details: 15 BRCA-negative patients, advanced-stage TNBC; cited from earlier work
[4] = test system: breast cancer patients with BRCA1/2 mutations; details: phase II; cited from earlier work
BRCA mutation carriers = details: phase I, oral monotherapy; cited from earlier work
MCF-10A cells = assay: Colony formation assay in MCF-10A knockdown cell lines; format: cell-based, human
Experimental: FIGS. 3A-C. Loss of PTEN Reverses HRD and Confers PARP Inhibitor Resistance to BRCA1-Depleted Cells through Over-expression of TTK. (A) Modified HR repair assay was performed in MCF-10A cells by transfecting cells with DRGFP DSB substrate plasmid and I-SceI plasmid through electroporation, followed by analysis of GFP-positive cells by flow cytometry 48 to 72 hours later. Each value is relative to the percentage of GFP-positive cells in I-SceI-transfected control cells. Results are show as mean±SD from three independent experiments. Student's t-test was performed from results of three independent experiments. (B) Cells were seeded at a very low density and treated with indicated concentrations of olaparib for 10 to 15 days to allow colony formation. The rate of cell survival in response to olaparib was determined by colony formation assay. Each value was relative to control cells without treatment and represents the mean±SD from three independent experiments. […] (C) Quantitative analysis of HR repair assay in cells transfected with TTK plasmids or the indicated siRNAs. Each value is relative to the percentage of GFP-positive cells in I-SceI-transfected control cells. Results are shown as mean±SD from three independent experiments. […] BRCA1 SMARTpool siRNA was used as a positive control.
FIGS. 11A-B. The HRD Gene Signature Predicts HR-deficiency and Sensitivity to PARP Inhibitors in Cancer Cells. (A) Cells were seeded in a very low density and treated with indicated concentrations of PARP inhibitor olaparib for 10-15 days to allow colony formation. The rate of cell survival was determined by colony-formation assay. Colonies were stained with 0.25% crystal violet/25% methanol and counted both manually and digitally using ImageJ software. […]
Colony Forming Assay. […] Colonies were counted manually (colonies containing 50 or more cells were counted) or digitally using ImageJ software with customized parameters optimized based on three preliminary manual counts or blindly chosen. […]

## CNCc1ccc(-c2[nH]c3cc(F)cc4c3c2CCNC4=O)cc1 [rucaparib]
[1]
  sensitivity of cell lines with the HRD gene signature compared with cell lines with intact HR repair: more sensitive

## AZ3146
HCC1937 cells
  apoptosis: enhanced olaparib-induced apoptosis

## CCNC(=O)c1noc(-c2cc(C(C)C)c(O)cc2O)c1-c1ccc(CN2CCOCC2)cc1 [AUY922]
HCC1937; MTT
  synergistic effect on PARP inhibitor treatment: synergistic effect
HCC1937; combinations with PARP inhibitors
  synergy compared with vorinostat combinations: relatively higher synergy

## O=C(c1cc(Cc2n[nH]c(=O)c3ccccc23)ccc1F)N1CCN(C(=O)C2CC2)CC1 [olaparib]
[2]
  objective response rate: 33%
[3]
  complete or partial responses: no complete or partial responses
[4]
  response rate: 41%
BRCA mutation carriers
  BRCA mutation carriers that did not respond: more than 35%
[1]
  sensitivity of cell lines with the HRD gene signature compared with cell lines with intact HR repair: more sensitive
MCF-10A cells; MCF-10A double knockdown cells
  sensitization by BRCA1-PTEN double knockdown: did not sensitize cells
MCF-10A cells; MCF-10A knockdown vs control cells, 10-15 days
  cellular sensitivity of BRCA1-, RAD51- and BRIT1-deficient cells: greatly increased cellular sensitivity
MCF-10A cells; MCF-10A single knockdown cells
  sensitization by BRCA1 or PTEN deficiency: sensitized cells

From US9850542B2, “Gene signature to predict homologous recombination (HR) deficient cancer” (Board of Regents, The University of Texas System, priority 2013, dated 2017)
